Values of other authors, collected in patent US8435575B2, “Use of gingerols for cancer patients suffering from nausea and emesis induced by chemotherapy” (priority 2010, dated 2013).
Entries after “also recorded” stand apart in the source; their conditions may differ.

What was measured:
[1] = tested on: vection-induced motion sickness; conditions: college students with self-reported high susceptibility to motion sickness
[2] = tested on: post surgical nausea and vomiting; conditions: oral ginger, 1.25 mg intravenous droperidol; 24 hour period following surgery
[3] = tested on: post-operative nausea and vomiting
[4] = tested on: post operative vomiting and nausea

## CN(C)CCOC(c1ccccc1)c1ccccc1 [diphenhydramine]
[1]
  preventing gastrointestinal symptoms caused by vection-induced motion sickness, versus dried chickweed herb placebo: more effective than dried chickweed herb placebo

## O=C(CCCN1CC=C(n2c(=O)[nH]c3ccccc32)CC1)c1ccc(F)cc1 [droperidol]
[2]
  statistically significant decrease in post-operative nausea or vomiting versus placebo: no differences; also recorded: Neither drug showed a

## CCN(CC)CCNC(=O)c1cc(Cl)c(N)cc1OC [metochlopramide]
[3]; 1.0 g ginger or 10 mg metochlopramide orally prior to gynecological surgery, P < .05
  post-operative nausea and vomiting control versus placebo: significantly more effective than placebo
[3]; both active drugs vs placebo
  post-operative vomiting versus placebo: less vomiting
[4]; 1 gram ginger powder or metochlopramide one hour prior to anaesthesia, laparoscopic gynaecological surgery
  post-operative nausea versus placebo: significantly more effective than placebo
[4]; after laparoscopic gynaecological surgery, 41% with placebo
  patients nauseated: placebo, 27%
[4]; ginger vs metochlopramide vs placebo
  frequency of emesis between the three arms: no significant differences
